Laboratory results published in ChEMBL document CHEMBL4190403, “Design, synthesis, and biological evaluation of pyrazole derivatives containing acetamide bond as potential BRAFV600E inhibitors” (Bioorg Med Chem Lett, 2018).

Legend:
A-375 = assay: Antiproliferative activity against human A375 cells harboring BRAF V600E mutant after 24 hrs by MTT assay; type: functional, cell-based; settings: A-375, 24 h
[1] = biological target: Serine/threonine-protein kinase B-raf (Mus musculus, UniProt P28028, V600E); assay: Inhibition of full-length GST-tagged mouse BRAF V600E mutant using recombinant human full length N-terminal His-tagged MEK1 as substrate preincubated for 1 hr followed by substrate addition measured after 25 mins by Nu-page gel-based phosphor screen analysis
Sequence of Serine/threonine-protein kinase B-raf (P28028 whole entry, looked up, stated change not applied): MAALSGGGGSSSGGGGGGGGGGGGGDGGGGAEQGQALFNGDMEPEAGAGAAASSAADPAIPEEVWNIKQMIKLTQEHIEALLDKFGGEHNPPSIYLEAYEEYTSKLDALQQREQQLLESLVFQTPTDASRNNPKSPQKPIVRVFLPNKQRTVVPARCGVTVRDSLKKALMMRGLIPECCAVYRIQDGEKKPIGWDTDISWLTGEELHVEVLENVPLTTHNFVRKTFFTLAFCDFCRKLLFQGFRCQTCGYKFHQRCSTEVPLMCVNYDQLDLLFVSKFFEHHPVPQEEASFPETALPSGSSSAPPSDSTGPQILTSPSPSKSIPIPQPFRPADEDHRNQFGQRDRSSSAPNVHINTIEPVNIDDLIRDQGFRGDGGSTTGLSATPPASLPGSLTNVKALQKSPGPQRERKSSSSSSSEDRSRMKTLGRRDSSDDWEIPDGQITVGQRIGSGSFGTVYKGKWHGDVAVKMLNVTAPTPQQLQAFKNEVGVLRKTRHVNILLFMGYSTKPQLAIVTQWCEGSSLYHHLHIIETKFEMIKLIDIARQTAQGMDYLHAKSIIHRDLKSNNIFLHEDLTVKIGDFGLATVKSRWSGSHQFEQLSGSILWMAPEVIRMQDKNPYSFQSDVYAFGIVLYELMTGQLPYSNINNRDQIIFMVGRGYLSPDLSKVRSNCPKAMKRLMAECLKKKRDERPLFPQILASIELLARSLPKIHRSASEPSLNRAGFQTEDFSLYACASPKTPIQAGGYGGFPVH

HT-29 = assay: Antiproliferative activity against human HT-29 cells harboring BRAF V600E mutant after 24 hrs by MTT assay; type: functional, cell-based; settings: HT-29, 24 h
[2] = Antiproliferative activity against human WM1361 cells harboring wild-type BRAF after 48 hrs by MTT assay; type: functional, cell-based; settings: WM1361, 48 h

Question: For `COc1ccc(CC(=O)Nc2cnn(Cc3ccccc3)c2)cc1OC`, which IC50 (A-375) is on record?
Answer: Its IC50 is 10.4 µM.

Question: What about the IC50 [1] of the same compound?
Answer: Its IC50 is 0.5 µM.

Question: And the IC50 (HT-29)?
Answer: The IC50 was 8.43 µM.

Question: And the IC50 [2]?
Answer: The IC50 was 18.8 µM.

Question: For `COc1cccc(-n2cc(NC(=O)Cc3ccc(OC)c(OC)c3)cn2)c1`, which IC50 (A-375) is on record?
Answer: Its IC50 is 3.49 µM.

Question: What about the IC50 [1] of the same compound?
Answer: The IC50 was 0.36 µM.

Question: And the IC50 (HT-29)?
Answer: The IC50 was 7.98 µM.

Question: What about the IC50 [2] of the same compound?
Answer: The IC50 was 24 µM.

Question: With `O=C(Cn1ccc2ccccc21)Nc1cnn(-c2ccccc2)c1` as the compound, how does the IC50 (A-375) read?
Answer: The IC50 was 24.2 µM.

Question: What about the IC50 [1] of the same compound?
Answer: The IC50 was 1.23 µM.

Question: What about the IC50 (HT-29) of the same compound?
Answer: The IC50 was 26.6 µM.

Question: And the IC50 [2]?
Answer: Its IC50 is 25.8 µM.

Question: With `CCn1cc(NC(=O)Cn2ccc3ccccc32)cn1` as the compound, how does the IC50 (A-375) read?
Answer: Its IC50 is 27.2 µM.

Question: And the IC50 [1]?
Answer: Its IC50 is 1.82 µM.

Question: And the IC50 (HT-29)?
Answer: Its IC50 is 49.9 µM.

Question: What about the IC50 [2] of the same compound?
Answer: The IC50 was 47.8 µM.

Question: For `O=C(Cn1ccc(-c2cccc(Cl)c2)n1)Nc1cnn(Cc2ccccc2)c1`, which IC50 (A-375) is on record?
Answer: The IC50 was 3.26 µM.

Question: What about the IC50 [1] of the same compound?
Answer: The IC50 was 0.34 µM.

Question: And the IC50 (HT-29)?
Answer: Its IC50 is 5.7 µM.

Question: What about the IC50 [2] of the same compound?
Answer: The IC50 was 14.9 µM.

Question: Which IC50 (A-375) does the source give for `COc1ccc(-n2cc(NC(=O)Cn3ccc4ccccc43)cn2)cc1` here?
Answer: Its IC50 is 19.8 µM.

Question: What about the IC50 [1] of the same compound?
Answer: The IC50 was 1.28 µM.

Question: What about the IC50 (HT-29) of the same compound?
Answer: Its IC50 is 12.7 µM.

Question: And the IC50 [2]?
Answer: The IC50 was 24.8 µM.

Question: For `COc1cccc(-n2cc(NC(=O)Cn3ccc(-c4ccccn4)n3)cn2)c1`, which IC50 (A-375) is on record?
Answer: Its IC50 is 3.08 µM.

Question: What about the IC50 [1] of the same compound?
Answer: The IC50 was 0.26 µM.

Question: What about the IC50 (HT-29) of the same compound?
Answer: The IC50 was 6.16 µM.

Question: And the IC50 [2]?
Answer: Its IC50 is 15.7 µM.

Question: What does the source list for `COc1ccc(CC(=O)Nc2cnn(C)c2)cc1OC`?
Answer: IC50 (A-375): 18.6 µM; IC50 [1]: 4.43 µM; IC50 (HT-29): 32.8 µM; IC50 [2]: 40.3 µM

Question: For `O=C(Cn1ccc2ccccc21)Nc1cnn(Cc2ccccc2)c1`, which IC50 (A-375) is on record?
Answer: Its IC50 is 17.6 µM.

Question: And the IC50 [1]?
Answer: The IC50 was 1.96 µM.

Question: What about the IC50 (HT-29) of the same compound?
Answer: Its IC50 is 12.3 µM.

Question: What about the IC50 [2] of the same compound?
Answer: Its IC50 is 26.8 µM.

Question: For `COc1ccc(-n2cc(NC(=O)Cc3ccc(OC)c(OC)c3)cn2)cc1`, which IC50 (A-375) is on record?
Answer: Its IC50 is 4.57 µM.

Question: What about the IC50 [1] of the same compound?
Answer: Its IC50 is 0.41 µM.

Question: What about the IC50 (HT-29) of the same compound?
Answer: The IC50 was 9.33 µM.

Question: What about the IC50 [2] of the same compound?
Answer: Its IC50 is 17.6 µM.

Question: For `COc1ccc(-n2cc(NC(=O)Cn3ccc(-c4ccccn4)n3)cn2)cc1`, which IC50 (A-375) is on record?
Answer: Its IC50 is 11.2 µM.

Question: And the IC50 [1]?
Answer: Its IC50 is 0.48 µM.

Question: And the IC50 (HT-29)?
Answer: Its IC50 is 11.1 µM.

Question: What about the IC50 [2] of the same compound?
Answer: Its IC50 is 24.4 µM.

Question: For `Cc1ccc(-n2cc(NC(=O)Cn3ccc4ccccc43)cn2)cc1`, which IC50 (A-375) is on record?
Answer: Its IC50 is 24.5 µM.

Question: And the IC50 [1]?
Answer: Its IC50 is 2.34 µM.

Question: What about the IC50 (HT-29) of the same compound?
Answer: The IC50 was 24.1 µM.

Question: And the IC50 [2]?
Answer: The IC50 was 27.4 µM.

Question: With `O=C(Cn1ccc(-c2ccccn2)n1)Nc1cnn(Cc2ccccc2)c1` as the compound, how does the IC50 (A-375) read?
Answer: Its IC50 is 19.8 µM.

Question: What about the IC50 [1] of the same compound?
Answer: Its IC50 is 0.55 µM.

Question: And the IC50 (HT-29)?
Answer: Its IC50 is 12.7 µM.

Question: What about the IC50 [2] of the same compound?
Answer: Its IC50 is 28 µM.

Question: Which IC50 (A-375) does the source give for `COc1ccc(CC(=O)Nc2cnn(-c3ccccc3)c2)cc1OC` here?
Answer: The IC50 was 16.2 µM.

Question: What about the IC50 [1] of the same compound?
Answer: The IC50 was 0.73 µM.

Question: What about the IC50 (HT-29) of the same compound?
Answer: The IC50 was 11.5 µM.

Question: And the IC50 [2]?
Answer: The IC50 was 25.6 µM.

Question: For `COc1cccc(-n2cc(NC(=O)Cn3ccc4ccccc43)cn2)c1`, which IC50 (A-375) is on record?
Answer: Its IC50 is 5.67 µM.

Question: And the IC50 [1]?
Answer: Its IC50 is 0.46 µM.

Question: What about the IC50 (HT-29) of the same compound?
Answer: The IC50 was 10.1 µM.

Question: What about the IC50 [2] of the same compound?
Answer: The IC50 was 16.5 µM.

Question: With `CCn1cc(NC(=O)Cn2ccc(-c3ccccn3)n2)cn1` as the compound, how does the IC50 (A-375) read?
Answer: The IC50 was 23.3 µM.

Question: And the IC50 [1]?
Answer: The IC50 was 3.86 µM.

Question: What about the IC50 (HT-29) of the same compound?
Answer: The IC50 was 26.8 µM.

Question: What about the IC50 [2] of the same compound?
Answer: Its IC50 is 29.8 µM.

Question: Which IC50 (A-375) does the source give for `Cn1cc(NC(=O)Cn2ccc(-c3cccc(Cl)c3)n2)cn1` here?
Answer: The IC50 was 16.8 µM.

Question: And the IC50 [1]?
Answer: Its IC50 is 1.67 µM.

Question: And the IC50 (HT-29)?
Answer: Its IC50 is 22.6 µM.

Question: And the IC50 [2]?
Answer: Its IC50 is 27.9 µM.

Question: Which results are given for `Cn1cc(NC(=O)Cn2ccc(-c3ccccn3)n2)cn1`?
Answer: IC50 (A-375): 23.7 µM; IC50 [1]: 2.54 µM; IC50 (HT-29): 25.4 µM; IC50 [2]: 31.9 µM

Question: Which IC50 (A-375) does the source give for `Cn1cc(NC(=O)Cn2ccc3ccccc32)cn1` here?
Answer: Its IC50 is 28.9 µM.

Question: What about the IC50 [1] of the same compound?
Answer: The IC50 was 4.66 µM.

Question: And the IC50 (HT-29)?
Answer: The IC50 was 35.1 µM.

Question: What about the IC50 [2] of the same compound?
Answer: Its IC50 is 36.5 µM.

Question: For `CCn1cc(NC(=O)Cn2ccc(-c3cccc(Cl)c3)n2)cn1`, which IC50 (A-375) is on record?
Answer: Its IC50 is 19.4 µM.

Question: And the IC50 [1]?
Answer: Its IC50 is 1.19 µM.

Question: What about the IC50 (HT-29) of the same compound?
Answer: The IC50 was 12.9 µM.

Question: And the IC50 [2]?
Answer: The IC50 was 26.5 µM.

Question: Which IC50 (A-375) does the source give for `CCn1cc(NC(=O)Cc2ccc(OC)c(OC)c2)cn1` here?
Answer: The IC50 was 17.9 µM.

Question: And the IC50 [1]?
Answer: The IC50 was 3.66 µM.

Question: What about the IC50 (HT-29) of the same compound?
Answer: Its IC50 is 25.6 µM.

Question: What about the IC50 [2] of the same compound?
Answer: Its IC50 is 31.4 µM.

Question: For `O=C(Cn1ccc(-c2ccccn2)n1)Nc1cnn(-c2ccccc2)c1`, which IC50 (A-375) is on record?
Answer: The IC50 was 10.6 µM.

Question: And the IC50 [1]?
Answer: The IC50 was 0.53 µM.

Question: And the IC50 (HT-29)?
Answer: Its IC50 is 10.8 µM.

Question: What about the IC50 [2] of the same compound?
Answer: The IC50 was 20.7 µM.

Question: Which results are given for `COc1ccc(CC(=O)Nc2cnn(-c3ccc(C)cc3)c2)cc1OC`?
Answer: IC50 (A-375): 2.74 µM; IC50 [1]: 0.45 µM; IC50 (HT-29): 8.73 µM; IC50 [2]: 16.6 µM
